In test [1] the target is T1, NK-1 (Homo sapiens, UniProt P25103).
T1 construct: 30 ul/well of a 2×U373 membrane preparation
Nature of the test: NK1 radioligand binding assay ([125I]Substance P, U373 membranes). Particulars: U373 cell membranes, 200 pM [125I]Substance P, 1 hour at room temperature. The protocol: (§1) NK-1 Binding assay. Crude membrane suspensions were prepared for the NK1 and SERT radioligand binding assays from U373 cells or recombinant HEK-293 cells expressing hSERT, respectively. Cells were harvested from T-175 flasks as follows. The medium is removed from the flasks and the cells rinsed with HBSS without Ca and without Mg. The cells are then incubated for 5-10 minutes in 10 mM Tris-Cl, pH 7.5, 5 mM EDTA before the cells are lifted with a combination of pipetting and scraping, as needed. To prepare membranes, the cell suspension is collected into centrifuge bottles and homogenized for 30 seconds with a Polytron homogenizer. The suspension is centrifuged for 30 min@32,000×g, 4° C., then the supernatant is decanted and the pellet resuspended and homogenized in 50 mM Tris-Cl, pH 7.5, 1 mM EDTA for 10 seconds. The suspension is then centrifuged again for 30 min@32,000×g, 4° C. The supernatant is decanted and the pellet resuspended in 50 mM Tris-Cl, pH 7.5, 1 mM EDTA and briefly homogenized. A Bradford assay (Bio-rad) is performed and the membrane preparation diluted to 2 mg/ml with 50 mM Tris-Cl, pH 7.5, 1 mM EDTA. Aliquots are prepared, and then frozen and stored at −80° C.
NK1 radioligand binding assay. Compounds are dissolved in 100% DMSO at a concentration 100× the desired highest assay concentration, serially diluted 1:3 in 100% DMSO, and 0.6 ul/well of each solution is dispensed to a Nunc polypropylene, round bottom, 384 well plate. 100% inhibition is defined with 0.6 ul/well of 1 mM L-733,060 (Sigma L-137) dissolved in DMSO. 30 ul/well of a 2×U373 membrane preparation (267 ug/ml in 100 mM Tris-Cl, pH 7.5, 6 mM MgCl2, 0.2% (v/v) Sigma mammalian protease inhibitor cocktail (Sigma P-8340), and 4 ug/ml chymostatin, Sigma C-7268) and 30 ul/well of a 2× radioligand solution (400 pM [^125I]Substance P (Perkin ElmerNEX-190) in 1% (w/v) BSA (Sigma A-2153), 0.1 mg/ml bacitracin, Sigma B-0125) are added to the well and the reaction incubated for 1 hour at room temperature. The contents of the assay plate are then transferred to a Millipore MultiscreenHTS GF/B filter plate which has been pretreated with 0.5% PEI for at least one hour. The plate is vacuum filtered and washed with 7 washes of 100 ul/well of 20 mM Tris-Cl, pH 7.5, 0.5% (w/v) BSA chilled to 4° C. The filtration and washing is completed in less than 90 s. The plates are air-dried overnight, 12 ul/well of MicroScint scintillation fluid added, and the plates counted in a Trilux.
(§2) Data analysis. The raw data are normalized to percent inhibition using control wells defining 0% (DMSO only) and 100% (selective inhibitor) inhibition which are run on each plate. Each plate is run in triplicate, and the concentration response curve thus generated is fit using the four-parameter dose response equation, Y=Bottom+(Top-Bottom)/(1+10^((LogIC50−X)*HillSlope)) in order to determine the IC50 value for each compound. The radioligand concentration chosen for each assay corresponds to the Kd concentration determined through saturation binding analysis for each assay.

In test [2] the target is hSERT (Homo sapiens, UniProt P31645). In words: SERT radioligand binding assay ([125I]RTI-55, HEK-hSERT membranes). The settings on record: HEK-293 hSERT membranes, 260 pM [125I]RTI-55, 1 hour at room temperature; read-out: SERT IC50. The protocol: as §1
hSERT, sequence (P31645 whole entry): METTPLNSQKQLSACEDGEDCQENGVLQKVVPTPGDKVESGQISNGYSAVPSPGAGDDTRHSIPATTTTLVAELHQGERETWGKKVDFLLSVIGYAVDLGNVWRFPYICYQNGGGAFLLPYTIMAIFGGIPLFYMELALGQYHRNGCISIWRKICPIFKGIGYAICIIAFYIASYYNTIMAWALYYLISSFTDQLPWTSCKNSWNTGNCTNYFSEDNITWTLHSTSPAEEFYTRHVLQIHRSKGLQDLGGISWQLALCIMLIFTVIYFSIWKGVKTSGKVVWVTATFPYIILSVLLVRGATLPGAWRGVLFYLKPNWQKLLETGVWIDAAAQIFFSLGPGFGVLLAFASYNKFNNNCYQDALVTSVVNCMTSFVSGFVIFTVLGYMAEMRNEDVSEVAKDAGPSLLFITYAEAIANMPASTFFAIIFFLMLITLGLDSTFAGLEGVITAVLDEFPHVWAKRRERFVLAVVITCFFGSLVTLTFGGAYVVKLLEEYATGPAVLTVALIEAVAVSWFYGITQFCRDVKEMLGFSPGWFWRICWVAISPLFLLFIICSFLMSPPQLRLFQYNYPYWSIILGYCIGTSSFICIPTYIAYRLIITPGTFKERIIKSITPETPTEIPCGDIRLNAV
SERT radioligand binding assay. Compounds are dissolved in 100% DMSO at a concentration 100× the desired highest assay concentration, serially diluted 1:3 in 100% DMSO, and 0.4 ul/well of each solution is dispensed to a Nunc polypropylene, round bottom, 384 well plate. 100% inhibition is defined with 0.4 ul/well of 1 mM fluoxetine (Sigma F-132) dissolved in DMSO. 20 ul/well of a 2× HEK-hSERT membrane preparation (15 ug/ml in 50 mM Tris-Cl, pH 7.5, 120 mM NaCl, 5mM KCl) and 20 ul/well of a 2× radioligand solution (520 pM [^125I]RTI-55 (Perkin-Elmer NEX-272) in 50 mM Tris-Cl, pH 7.5, 120 mM NaCl, 5mM KCl) are added to each well and the reaction incubated for 1 hour at room temperature. The contents of the assay plate are then transferred to a Millipore MultiscreenHTs GF/B filter plate which has been pretreated with 0.5% PEI for at least one hour. The plate is vacuum filtered and washed with 7 washes of 100 ul/well of 50 mM Tris-Cl, pH 7.5, 120 mM NaCl, 5 mM KCl chilled to 4° C. The filtration and washing is completed in less than 90 s. The plates are air-dried overnight, 12 ul/well of MicroScint scintillation fluid added, and the plates counted in a Trilux.
as §2

T1 sequence (P25103 whole entry): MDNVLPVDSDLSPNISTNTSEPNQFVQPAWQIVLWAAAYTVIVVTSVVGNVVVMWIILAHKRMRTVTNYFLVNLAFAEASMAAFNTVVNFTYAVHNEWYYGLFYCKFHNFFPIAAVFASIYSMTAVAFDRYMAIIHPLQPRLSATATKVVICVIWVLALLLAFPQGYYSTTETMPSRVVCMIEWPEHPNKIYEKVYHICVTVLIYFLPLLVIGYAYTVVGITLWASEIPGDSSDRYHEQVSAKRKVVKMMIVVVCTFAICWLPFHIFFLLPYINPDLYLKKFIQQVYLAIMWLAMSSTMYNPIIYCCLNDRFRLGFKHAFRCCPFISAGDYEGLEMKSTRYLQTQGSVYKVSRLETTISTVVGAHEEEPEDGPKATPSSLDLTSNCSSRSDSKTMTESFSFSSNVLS

With `CC(OCC1(c2ccccc2)CCNCC1)c1cc(C(F)(F)F)cc2cn[nH]c12` (racemic) [Example 20, (±)-7-(1-((4-Phenylpiperidin-4-yl)methoxy)ethyl)-5-(trifluoromethyl)-1H-indazole], the concentration for half-maximal inhibition (IC50) in test [1] and in test [2] was 0.01 to 100 nM throughout.

For `CC(OCC1(c2ccccc2)CCN(C)CC1)c1cc(C(F)(F)F)cc2cn[nH]c12` (racemic) [Example 21, (±)-7-(1-((1-Methyl-4-phenylpiperidin-4-yl)methoxy)ethyl)-5-(trifluoromethyl)-1H-indazole], the concentration for half-maximal inhibition (IC50) in test [1] and in test [2] was 0.01 to 100 nM throughout. Consider `CC(OCC1(c2ccccc2)CCNCC1)c1cc(Cl)cc2cn[nH]c12` (racemic) [Example 38, (±)-5-Chloro-7-(1-((4-phenylpiperidin-4-yl)methoxy)ethyl)-1H-indazole], for which the IC50 in test [1] and in test [2] was 0.01 to 100 nM throughout.

For the compound `CC(OCC1(c2ccccc2)CCN(C)CC1)c1cc(Cl)cc2cn[nH]c12` (racemic) [Example 39, (±)-5-Chloro-7-(1-((1-methyl-4-phenylpiperidin-4-yl)methoxy)ethyl)-1H-indazole], the IC50 in test [1] and in test [2] was 0.01 to 100 nM throughout. As to `CC(OCC1(c2ccccc2)CCNCC1)c1cc(Cl)cc2cnn(C)c12` (racemic) [Example 40, (±)-5-Chloro-1-methyl-7-(1-((4-phenylpiperidin-4-yl)methoxy)ethyl)-1H-indazole], the IC50 in test [1] and in test [2] was 0.01 to 100 nM throughout. In the case of `CC(OCC1(c2ccccc2)CCN(C)CC1)c1cc(C(F)(F)F)cc2c(C#N)n[nH]c12` (racemic) [Example 42, (±)-7-(1-((1-methyl-4-phenylpiperidin-4-yl)methoxy)ethyl)-5-(trifluoromethyl)-1H-indazole-3-carbonitrile], the IC50 in test [1] lay in the range of 0.01 to 100 nM; in test [2], 100 to 300 nM.

In the case of `Cc1n[nH]c2c(C(C)OCC3(c4ccccc4)CCNCC3)cc(C(F)(F)F)cc12` (racemic) [Example 43, (±)-3-Methyl-7-(1-((4-phenylpiperidin-4-yl)methoxy)ethyl)-5-(trifluoromethyl)-1H-indazole], the IC50 in test [1] and in test [2] was 0.01 to 100 nM throughout.

In the case of `Cc1n[nH]c2c(C(C)OCC3(c4ccccc4)CCN(C)CC3)cc(C(F)(F)F)cc12` (racemic) [Example 44, (±)-3-Methyl-7-(1-((1-methyl-4-phenylpiperidin-4-yl)methoxy)ethyl)-5-(trifluoromethyl)-1H-indazole], the IC50 in test [1] and in test [2] was 0.01 to 100 nM in each case.

With `CC(OCC1(c2ccc(F)cc2)CCN(C)CC1)c1cc(Br)cc2cn[nH]c12` (racemic) [Example 46, (±)-5-Bromo-7-(1-((4-(4-fluorophenyl)-1-methylpiperidin-4-yl)methoxy)ethyl)-1H-indazole], the IC50 in test [1] and in test [2] was 0.01 to 100 nM each time. As for `CC(OCC1(c2ccc(F)cc2)CCN(C)CC1)c1cc(C2CC2)cc2cn[nH]c12` (racemic) [Example 47, (±)-5-Cyclopropyl-7-(1-((4-(4-fluorophenyl)-1-methylpiperidin-4-yl)methoxy)ethyl)-1H-indazole], the IC50 in test [1] and in test [2] was 0.01 to 100 nM throughout. Consider `CC(OCC1(c2ccc(F)cc2)CCN(C)CC1)c1cc(C#N)cc2cn[nH]c12` (racemic) [Example 48, (±)-7-(1-((4-(4-Fluorophenyl)-1-methylpiperidin-4-yl)methoxy)ethyl)-1H-indazole-5-carbonitrile], for which the IC50 in test [1] and in test [2] was 0.01 to 100 nM in each case. Consider `C[C@@H](OCC1(c2ccc(F)cc2)CCN(C)CC1)c1cc(Cl)cc2c(Cl)n(CC(F)(F)F)nc12` [Example 117, (R)-3,5-dichloro-7-(1-((4-(4-fluorophenyl-1-methyl)piperidine-4-yl)methoxy)ethyl)-2-(2,2,2-trifluoroethyl)-1H-indazole], for which the IC50 in test [1] lay within 0.01 to 100 nM.

The values above are taken from patent US8026257B2 (Bristol-Myers Squibb Company, priority 2007, dated 2011).
